According to publication PMC4342491, “Cross-talk between Two Nucleotide-signaling Pathways in Staphylococcus aureus” (The Journal of Biological Chemistry, 2015):

Assays:
GdpP (rGdpP) [1] = target: T1, GdpP (rGdpP) (Staphylococcus aureus, UniProt Q2G2T6); test: TLC of […]c-di-AMP hydrolysis to pApA, dose-response fit; type: biochemical
T1 construct: gene SAOUHSC_00015; residues 84-655, N-terminal transmembrane helices removed
T1 sequence (Q2G2T6 84-655): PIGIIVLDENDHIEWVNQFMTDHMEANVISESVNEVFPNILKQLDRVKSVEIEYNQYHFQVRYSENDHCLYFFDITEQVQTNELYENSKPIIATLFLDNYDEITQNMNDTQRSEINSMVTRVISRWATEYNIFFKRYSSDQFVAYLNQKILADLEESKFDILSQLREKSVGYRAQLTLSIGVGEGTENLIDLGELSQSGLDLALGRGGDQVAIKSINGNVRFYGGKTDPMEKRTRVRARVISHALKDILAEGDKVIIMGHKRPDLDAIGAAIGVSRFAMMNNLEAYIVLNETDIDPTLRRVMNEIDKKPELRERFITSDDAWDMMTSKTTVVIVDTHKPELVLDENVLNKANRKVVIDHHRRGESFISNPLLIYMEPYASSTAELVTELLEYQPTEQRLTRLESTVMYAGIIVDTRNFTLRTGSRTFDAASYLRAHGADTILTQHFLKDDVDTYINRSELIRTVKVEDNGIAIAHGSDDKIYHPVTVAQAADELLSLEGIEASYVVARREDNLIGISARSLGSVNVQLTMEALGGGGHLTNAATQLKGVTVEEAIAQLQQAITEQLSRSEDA

GdpP (rGdpP) [2] = target: T1, GdpP (rGdpP); test: TLC of radiolabelled c-di-AMP hydrolysis to pApA; type: biochemical; settings: labelled compound; 20 μM c-di-AMP, 1 μM enzyme, 50 mM Tris pH 8.5, 0.1 mM MnCl2, 20 mM KCl, room temperature, no ppGpp

Compound | Ki (GdpP (rGdpP) [1]) | % pApA formation (GdpP (rGdpP) [2])
Nc1nc2c(ncn2[C@@H]2O[C@H](COP(=O)(O)OP(=O)(O)O)[C@@H](OP(=O)(O)OP(=O)(O)O)[C@H]2O)c(=O)[nH]1 [ppGpp] | 130 ± 42.8 µM | 
Nc1ncnc2c1ncn2[C@@H]1O[C@@H]2COP(=O)(O)O[C@H]3[C@@H](O)[C@H](n4cnc5c(N)ncnc54)O[C@@H]3COP(=O)(O)O[C@H]2[C@H]1O [c-di-AMP] |  | rGdpP was able to efficiently hydrolyze c-di-AMP in the absence of ppGpp
